Assay results as given in patent US20230271954A1 (Gossamer Bio Services, Inc., priority 2020, published 2023).
pIC50: −log10 of the molar value.

How the values were obtained:
[1] = target: DGKα (Homo sapiens, UniProt P23743); assay: DGKα biochemical assay (ADP-Glo); conditions: read-out: DGK α IC50
How it was run: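 ADP-Glo kinase assay using OAG/PS (1:2) lipid substrate, sonicated, in HEPES pH 7.0 buffer with MgCl2, CaCl2, DTT, BSA, Triton X-100. Enzyme preincubated with compound 30 min at RT; substrate with ATP (DGKα: 400 μM) added, 45 min RT. Luminescence read; % inhibition vs DMSO and no-enzyme controls.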

[2] = target: T1, DGKζ (Homo sapiens, UniProt Q13574); assay: DGKζ biochemical assay (ADP-Glo); conditions: read-out: DGK ζ IC50
T1 construct: purchased Carna 12-110
T1 sequence (Q13574 1-929 isoform Q13574-4): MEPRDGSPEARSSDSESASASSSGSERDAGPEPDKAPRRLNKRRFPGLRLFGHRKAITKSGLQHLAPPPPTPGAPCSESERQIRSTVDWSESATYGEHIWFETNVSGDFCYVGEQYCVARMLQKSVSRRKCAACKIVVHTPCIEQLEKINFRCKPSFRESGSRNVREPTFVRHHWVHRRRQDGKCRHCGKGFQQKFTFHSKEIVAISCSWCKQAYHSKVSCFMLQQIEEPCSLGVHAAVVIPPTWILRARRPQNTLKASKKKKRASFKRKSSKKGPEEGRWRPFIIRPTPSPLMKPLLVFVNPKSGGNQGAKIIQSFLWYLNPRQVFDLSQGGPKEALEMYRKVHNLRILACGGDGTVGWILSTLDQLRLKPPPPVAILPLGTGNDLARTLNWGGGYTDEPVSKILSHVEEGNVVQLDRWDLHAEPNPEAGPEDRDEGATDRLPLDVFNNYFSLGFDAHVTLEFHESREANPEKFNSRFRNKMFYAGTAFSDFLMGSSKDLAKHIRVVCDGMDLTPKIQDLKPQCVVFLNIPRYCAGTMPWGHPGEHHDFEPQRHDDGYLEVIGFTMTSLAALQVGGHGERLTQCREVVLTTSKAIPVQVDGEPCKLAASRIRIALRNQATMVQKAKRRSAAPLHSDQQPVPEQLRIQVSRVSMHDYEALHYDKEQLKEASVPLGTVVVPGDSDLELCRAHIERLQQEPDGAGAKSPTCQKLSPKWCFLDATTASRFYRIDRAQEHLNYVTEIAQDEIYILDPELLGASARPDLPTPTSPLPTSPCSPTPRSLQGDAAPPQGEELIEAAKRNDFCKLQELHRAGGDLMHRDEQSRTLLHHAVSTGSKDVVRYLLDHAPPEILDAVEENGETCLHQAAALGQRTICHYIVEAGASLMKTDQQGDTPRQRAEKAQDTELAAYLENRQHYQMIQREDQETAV

Chain of DGKα (P23743 whole entry): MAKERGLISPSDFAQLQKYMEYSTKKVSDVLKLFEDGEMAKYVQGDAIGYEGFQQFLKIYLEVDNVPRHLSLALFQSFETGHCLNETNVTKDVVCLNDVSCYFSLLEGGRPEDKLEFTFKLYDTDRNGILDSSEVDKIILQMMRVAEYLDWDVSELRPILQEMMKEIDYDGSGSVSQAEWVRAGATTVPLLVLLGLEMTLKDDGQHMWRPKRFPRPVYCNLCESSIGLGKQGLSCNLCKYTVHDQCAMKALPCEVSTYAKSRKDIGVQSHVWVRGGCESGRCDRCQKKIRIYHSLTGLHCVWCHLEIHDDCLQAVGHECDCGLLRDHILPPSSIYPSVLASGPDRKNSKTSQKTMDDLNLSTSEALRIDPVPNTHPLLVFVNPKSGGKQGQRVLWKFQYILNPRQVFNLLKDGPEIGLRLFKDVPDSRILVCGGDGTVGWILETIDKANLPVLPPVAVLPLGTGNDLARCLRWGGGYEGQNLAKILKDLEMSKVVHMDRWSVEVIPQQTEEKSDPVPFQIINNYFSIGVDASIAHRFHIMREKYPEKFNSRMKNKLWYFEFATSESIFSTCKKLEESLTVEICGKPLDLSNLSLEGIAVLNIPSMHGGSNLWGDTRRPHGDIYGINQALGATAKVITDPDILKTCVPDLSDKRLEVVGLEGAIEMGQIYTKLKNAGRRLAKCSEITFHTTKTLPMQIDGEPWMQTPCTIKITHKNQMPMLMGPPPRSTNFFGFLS

| pIC50 [1] | pIC50 [2] | Structure (SMILES) |
| --- | --- | --- |
| 6.00 to 7.00 | 6.00 to 7.00 | Cc1nc(F)ccc1N(CC1CCOC1)[C@H]1CC[C@H](N(C)c2c(C#N)c(=O)n(C)c3ccc(C#N)nc23)CC1 (stereo partly drawn) [Example 130, trans-8-((-4-((6-fluoro-2-methylpyridin-3-yl) ((tetrahydrofuran-3-yl)methyl)amino)cyclohexyl) (methyl)amino)-5-methyl-6-oxo-5,6-dihydro-1,5-naphthyridine-2,7-dicarbonitrile] |
| 6.00 to 7.00 | 6.00 to 7.00 | Cc1nc(F)ccc1N(CC1CCC1)[C@H]1CC[C@H](N(C)c2c(C#N)c(=O)n(C)c3ccc(C#N)nc23)CC1 [Example 131, trans-8-((-4-((cyclobutylmethyl)(6-fluoro-2-methylpyridin-3-yl)amino)cyclohexyl)(methyl)amino)-5-methyl-6-oxo-5,6-dihydro-1,5-naphthyridine-2,7-dicarbonitrile] |
| > 8.00 | 7.00 to 8.00 | Cn1c(=O)c(C#N)c(N(C)[C@H]2CC[C@H](N(CC3CCC3)c3cccc4c3OCO4)CC2)c2nc(Cl)ccc21 [Example 132, trans-4-((-4-(benzo[d][1,3]dioxol-4-yl(cyclobutylmethyl)amino)cyclohexyl)(methyl)amino)-6-chloro-1-methyl-2-oxo-1,2-dihydro-1,5-naphthyridine-3-carbonitrile] |
| 7.00 to 8.00 | 6.00 to 7.00 | Cn1c(=O)cc(N(C)[C@H]2CC[C@@H](N(CC3CCC3)c3ccc4c(c3)OC(F)(F)O4)CC2)c2nc(C#N)ccc21 [Example 133, cis-8-((-4-((cyclobutylmethyl)(2,2-difluorobenzo[d] [1,3]dioxol-5-yl)amino)cyclohexyl)(methyl)amino)-5-methyl-6-oxo-5,6-dihydro-1,5-naphthyridine-2-carbonitrile] |
| 7.00 to 8.00 | 6.00 to 7.00 | Cn1c(=O)cc(N(C)[C@H]2CC[C@@H](N(CC3CCC3)c3cc(F)cc(F)c3)CC2)c2nc(C#N)ccc21 [Example 134, cis-8-((-4-((cyclobutylmethyl)(3,5-difluorophenyl)amino)cyclohexyl)(methyl)amino)-5-methyl-6-oxo-5,6-dihydro-1,5-naphthyridine-2-carbonitrile] |
| 7.00 to 8.00 | 7.00 to 8.00 | Cn1c(=O)c(C#N)c(N(C)[C@H]2CC[C@H](N(CC3CC3)c3ccc(F)c(OC4CC4)c3)CC2)c2nc(C#N)ccc21 [Example 135, trans-8-((-4-((3-cyclopropoxy-4-fluorophenyl) (cyclopropylmethyl)amino)cyclohexyl)(methyl)amino)-5-methyl-6-oxo-5,6-dihydro-1,5-naphthyridine-2,7-dicarbonitrile] |
| 6.00 to 7.00 | 7.00 to 8.00 | Cc1cc(F)ccc1N(CC1CCCCO1)[C@H]1CC[C@H](N(C)c2c(C#N)c(=O)n(C)c3ccc(C#N)nc23)CC1 (stereo partly drawn) [Example 136, trans-8-((-4-((4-fluoro-2-methylphenyl)((tetrahydro-2H-pyran-2-yl)methyl)amino)cyclohexyl)(methyl)amino)-5-methyl-6-oxo-5,6-dihydro-1,5-naphthyridine-2,7-dicarbonitrile] |
| ≤ 6.00 | ≤ 6.00 | Cc1cc(F)c(F)cc1N(CC1CCC1)[C@H]1CC[C@H](N(C)c2c(C#N)c(=O)n(C)c3ccc(Cl)nc23)CC1 [Example 137, trans-6-chloro-4-((4-((cyclobutylmethyl)(4,5-difluoro-2-methylphenyl)amino)cyclohexyl)(methyl)amino)-1-methyl-2-oxo-1,2-dihydro-1,5-naphthyridine-3-carbonitrile] |
| ≤ 6.00 | ≤ 6.00 | Cc1cc(F)c(F)cc1N(CC1CCC1)[C@H]1CC[C@H](N(C)c2c(C#N)c(=O)n(C)c3ccc(C#N)nc23)CC1 [Example 138, trans-8-((4-((cyclobutylmethyl)(4,5-difluoro-2-methylphenyl)amino)cyclohexyl)(methyl)amino)-5-methyl-6-oxo-5,6-dihydro-1,5-naphthyridine-2,7-dicarbonitrile] |
| ≤ 6.00 | ≤ 6.00 | Cc1nc(F)ccc1N(CC1CCC1)[C@H]1CC[C@H](N(C)c2c(C#N)c(=O)n(C)c3ccc(Cl)nc23)CC1 [Example 139, trans-6-chloro-4-((-4-((cyclobutylmethyl)(6-fluoro-2-methylpyridin-3-yl)amino)cyclohexyl)(methyl)amino)-1-methyl-2-oxo-1,2-dihydro-1,5-naphthyridine-3-carbonitrile] |
| 6.00 to 7.00 | 7.00 to 8.00 | Cc1cc(F)ncc1N(CC1CCC1)[C@H]1CC[C@H](N(C)c2c(C#N)c(=O)n(C)c3ccc(C#N)nc23)CC1 [Example 140, trans-8-((-4-((cyclobutylmethyl)(6-fluoro-4-methylpyridin-3-yl)amino)cyclohexyl)(methyl)amino)-5-methyl-6-oxo-5,6-dihydro-1,5-naphthyridine-2,7-dicarbonitrile] |
| > 8.00 | 7.00 to 8.00 | Cn1c(=O)c(C#N)c(N(C)[C@H]2CC[C@@H](N(CC3COCCO3)c3ccc(F)cc3)CC2)c2nc(C#N)ccc21 (stereo partly drawn) [Example 141, cis-8-((-4-(((1,4-dioxan-2-yl)methyl)(4-fluorophenyl)amino)cyclohexyl)(methyl)amino)-5-methyl-6-oxo-5,6-dihydro-1,5-naphthyridine-2,7-dicarbonitrile] |
| 7.00 to 8.00 | 7.00 to 8.00 | Cn1c(=O)c(C#N)c(N(C)[C@H]2CC[C@@H](N(C[C@@H]3CCCOC3)c3ccc4c(c3)OCO4)CC2)c2nc(C#N)ccc21 [Example 142, cis-8-((-4-(benzo[d][1,3]dioxol-5-yl(((S)-tetrahydro-2H-pyran-3-yl)methyl)amino)cyclohexyl)(methyl)amino)-5-methyl-6-oxo-5,6-dihydro-1,5-naphthyridine-2,7-dicarbonitrile] |
| > 8.00 | 7.00 to 8.00 | Cn1c(=O)c(C#N)c(N(C)[C@H]2CC[C@@H](N(C[C@H]3CCCOC3)c3ccc4c(c3)OCO4)CC2)c2nc(C#N)ccc21 [Example 143, cis-8-((-4-(benzo[d][1,3]dioxol-5-yl(((R)-tetrahydro-2H-pyran-3-yl)methyl)amino)cyclohexyl)(methyl)amino)-5-methyl-6-oxo-5,6-dihydro-1,5-naphthyridine-2,7-dicarbonitrile] |
| 6.00 to 7.00 | 6.00 to 7.00 | Cc1cc(F)ccc1N(CC1CC1)[C@H]1CC[C@@H](N(C)c2cc(=O)n(C)c3ccc(C#N)nc23)CC1 [Example 144, cis-8-((4-((cyclopropylmethyl)(4-fluoro-2-methylphenyl)amino)cyclohexyl)(methyl)amino)-5-methyl-6-oxo-5,6-dihydro-1,5-naphthyridine-2-carbonitrile] |
| ≤ 6.00 | ≤ 6.00 | Cc1cc2c(cc1N(CC1CCC1)[C@H]1CC[C@H](N(C)c3c(C#N)c(=O)n(C)c4ccc(Cl)nc34)CC1)OCO2 [Example 145, trans-6-chloro-4-((4-((cyclobutylmethyl)(6-methylbenzo[d][1,3]dioxol-5-yl)amino)cyclohexyl) (methyl)amino)-1-methyl-2-oxo-1,2-dihydro-1,5-naphthyridine-3-carbonitrile] |
| 6.00 to 7.00 | 6.00 to 7.00 | Cc1cc2c(cc1N(CC1CCC1)[C@H]1CC[C@H](N(C)c3c(C#N)c(=O)n(C)c4ccc(C#N)nc34)CC1)OCO2 [Example 146, trans-8-((4-((cyclobutylmethyl)(6-methylbenzo[d] [1,3]dioxol-5-yl)amino)cyclohexyl)(methyl)amino)-5-methyl-6-oxo-5,6-dihydro-1,5-naphthyridine-2,7-dicarbonitrile] |
| 7.00 to 8.00 | 6.00 to 7.00 | Cc1ccc(N(CC2CCC2)[C@H]2CC[C@@H](N(C)c3cc(=O)n(C)c4ccc(C#N)nc34)CC2)cc1OC(F)F [Example 147, cis-8-((-4-((cyclobutylmethyl)(3-(difluoromethoxy)-4-methylphenyl)amino)cyclohexyl)(methyl)amino)-5-methyl-6-oxo-5,6-dihydro-1,5-naphthyridine-2-carbonitrile] |
| 7.00 to 8.00 | 7.00 to 8.00 | Cc1ccc(N(CC2CCC2)[C@H]2CC[C@@H](N(C)c3c(C#N)c(=O)n(C)c4ccc(C#N)nc34)CC2)cc1OC(F)F [Example 148, cis-8-((-4-((cyclobutylmethyl)(3-(difluoromethoxy)-4-methylphenyl)amino)cyclohexyl)(methyl)amino)-5-methyl-6-oxo-5,6-dihydro-1,5-naphthyridine-2,7-dicarbonitrile] |
| 6.00 to 7.00 | 6.00 to 7.00 | Cn1c(=O)c(C#N)c(N(C)[C@H]2CC[C@H](N(CC3COCCO3)c3ccc(F)cc3)CC2)c2nc(C#N)ccc21 (stereo partly drawn) [Example 149, trans-8-((-4-(((1,4-dioxan-2-yl)methyl)(4-fluorophenyl)amino)cyclohexyl)(methyl)amino)-5-methyl-6-oxo-5,6-dihydro-1,5-naphthyridine-2,7-dicarbonitrile] |
| 6.00 to 7.00 | 7.00 to 8.00 | Cc1cc2c(cc1N(CC1CCC1)[C@H]1CC[C@@H](N(C)c3cc(=O)n(C)c4ccc(C#N)nc34)CC1)OCO2 [Example 150, cis-8-((4-((cyclobutylmethyl)(6-methylbenzo[d][1,3]dioxol-5-yl)amino)cyclohexyl)(methyl)amino)-5-methyl-6-oxo-5,6-dihydro-1,5-naphthyridine-2-carbonitrile] |
| ≤ 6.00 | ≤ 6.00 | Cc1cc2c(cc1N(CC1CCC1)[C@H]1CC[C@@H](N(C)c3c(C#N)c(=O)n(C)c4ccc(Cl)nc34)CC1)OCO2 [Example 151, cis-6-chloro-4-((4-((cyclobutylmethyl)(6-methylbenzo[d][1,3]dioxol-5-yl)amino)cyclohexyl) (methyl)amino)-1-methyl-2-oxo-1,2-dihydro-1,5-naphthyridine-3-carbonitrile] |
| ≤ 6.00 | ≤ 6.00 | Cc1cc2c(cc1N(CC1CCC1)[C@H]1CC[C@@H](N(C)c3c(C#N)c(=O)n(C)c4ccc(C#N)nc34)CC1)OCO2 [Example 152, cis-8-((4-((cyclobutylmethyl)(6-methylbenzo[d][1,3]dioxol-5-yl)amino)cyclohexyl)(methyl)amino)-5-methyl-6-oxo-5,6-dihydro-1,5-naphthyridine-2,7-dicarbonitrile] |
